The source of these data is patent publication US11957687B2 (REGENERON PHARMACEUTICALS, INC., priority 2019, dated 2024).

SMILES strings stand for the structures. Several values for one entry are separate records, joined by “and”; a condition that tells them apart may be missing. Identical values can stand only once.

The target of this experiment is HSD17B13 (Homo sapiens (Human), UniProt Q7Z5P4). Kind of experiment: HSD17B13 enzymatic inhibition assay (150 nM or 50 nM HSD17B13). Format: biochemical. The following applies: 50 nM HSD17B13; read-out: Inhibition of 50 nM of HSD17B13 IC50.
HSD17B13, sequence (Q7Z5P4 other isoform, or with tags, fused parts or gaps): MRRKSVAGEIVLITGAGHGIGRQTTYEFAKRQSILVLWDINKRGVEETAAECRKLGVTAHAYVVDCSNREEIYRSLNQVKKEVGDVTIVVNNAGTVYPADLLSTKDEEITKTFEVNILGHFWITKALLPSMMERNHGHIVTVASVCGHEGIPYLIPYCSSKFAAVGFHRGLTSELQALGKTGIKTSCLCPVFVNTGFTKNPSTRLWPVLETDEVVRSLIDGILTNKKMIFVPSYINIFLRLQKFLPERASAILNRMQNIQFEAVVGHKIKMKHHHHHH
With `O=C(NC(c1ccccc1)c1ccc(-c2cncnc2)cc1)c1ccc(C(F)(F)F)[nH]c1=O` (stereo not shown) [Compound 92, N-(phenyl(4-(pyrimidin-5-yl)phenyl)methyl)-2-oxo-6-(trifluoromethyl)-1,2-dihydropyridine-3-carboxamide], the IC50 amounted to 2140 nM.

For the molecule `CN1CCN(c2ccc(C(NC(=O)c3ccc(C(F)(F)F)[nH]c3=O)c3ccccc3)cc2)CC1` (stereo not shown) [Compound 95, N-((4-(4-methylpiperazin-1-yl)phenyl)(phenyl)methyl)-2-oxo-6-(trifluoromethyl)-1,2-dihydropyridine-3-carboxamide], the half-maximal inhibitory concentration (IC50) is 1460 nM and 350 nM. With `O=C(NC(c1ccccc1)c1ccc(N2CCN(CC(F)(F)F)CC2)cc1)c1ccc(C(F)(F)F)[nH]c1=O` (stereo not shown) [Compound 96, N-(phenyl(4-(4-(2,2,2-trifluoroethyl)piperazin-1-yl)phenyl)methyl)-2-oxo-6-(trifluoromethyl)-1,2-dihydropyridine-3-carboxamide] the figure was 1740 nM; with `O=C(NC(c1ccccc1)c1ccc(-c2ncccn2)cc1)c1ccc(C(F)(F)F)[nH]c1=O` (stereo not shown) [Compound 97, 2-oxo-N-(phenyl(4-(pyrimidin-2-yl)phenyl)methyl)-6-(trifluoromethyl)-1,2-dihydropyridine-3-carboxamide], 2300 nM. With `NCc1ccc(C(NC(=O)c2ccc(C(F)(F)F)[nH]c2=O)c2ccccc2)cc1` (stereo not shown) [Compound 98, N-((4-(aminomethyl)phenyl)(phenyl)methyl)-2-oxo-6-(trifluoromethyl)-1,2-dihydropyridine-3-carboxamide], the IC50 is greater than 10000 nM. As for `O=C(NC(c1ccccc1)c1ccc(C2COC2)cc1)c1ccc(C(F)(F)F)[nH]c1=O` (stereo not shown) [Compound 99, N-((4-(oxetan-3-yl)phenyl)(phenyl)methyl)-2-oxo-6-(trifluoromethyl)-1,2-dihydropyridine-3-carboxamide], the IC50 was determined as 2720 nM.

For `O=C(NC(c1ccccc1)c1ccc(-c2ccccn2)cc1)c1ccc(C(F)(F)F)[nH]c1=O` (stereo not shown) [Compound 100, 2-oxo-N-(phenyl(4-(pyridin-2-yl)phenyl)methyl)-6-(trifluoromethyl)-1,2-dihydropyridine-3-carboxamide], the IC50 amounted to 740 nM. With `O=C(NC(c1ccccc1)c1ccc(-c2cnccn2)cc1)c1ccc(C(F)(F)F)[nH]c1=O` (stereo not shown) [Compound 101, 2-oxo-N-(phenyl(4-(pyrazin-2-yl)phenyl)methyl)-6-(trifluoromethyl)-1,2-dihydropyridine-3-carboxamide] the figure was 1230 nM; with `CNCc1ccc(C(NC(=O)c2ccc(C(F)(F)F)[nH]c2=O)c2ccccc2)cc1` (stereo not shown) [Compound 102, N-((4-((methylamino)methyl)phenyl) (phenyl)methyl)-2-oxo-6-(trifluoromethyl)-1,2-dihydropyridine-3-carboxamide], greater than 10000 nM. With `CN(C)Cc1ccc(C(NC(=O)c2ccc(C(F)(F)F)[nH]c2=O)c2ccccc2)cc1` (stereo not shown) [Compound 103, N-((4-((dimethylamino)methyl)phenyl)(phenyl)methyl)-2-oxo-6-(trifluoromethyl)-1,2-dihydropyridine-3-carboxamide] the figure was greater than 10000 nM. Turning to `O=C(NC(c1ccccc1)c1ccc(C2CCNCC2)cc1)c1ccc(C(F)(F)F)[nH]c1=O` (stereo not shown) [Compound 104, 2-oxo-N-(phenyl(4-(piperidin-4-yl)phenyl)methyl)-6-(trifluoromethyl)-1,2-dihydropyridine-3-carboxamide], the IC50 was determined as 8650 nM. The value for `O=C(NC(c1ccccc1)c1ccc(C2=CCNCC2)cc1)c1ccc(C(F)(F)F)[nH]c1=O` (stereo not shown) [Compound 105, 2-oxo-N-(phenyl(4-(1,2,3,6-tetrahydropyridin-4-yl)phenyl)methyl)-6-(trifluoromethyl)-1,2-dihydropyridine-3-carboxamide] was 4280 nM; that for `CN1CCC(c2ccc(C(NC(=O)c3ccc(C(F)(F)F)[nH]c3=O)c3ccccc3)cc2)CC1` (stereo not shown) [Compound 106, N-((4-(1-methylpiperidin-4-yl)phenyl)(phenyl)methyl)-2-oxo-6-(trifluoromethyl)-1,2-dihydropyridine-3-carboxamide] was greater than 10000 nM.

On to `O=C(NC(c1ccccc1)c1ccc2c(c1)CCCN2)c1ccc(C(F)(F)F)[nH]c1=O` (stereo not shown) [Compound 107, 2-oxo-N-(phenyl(1,2,3,4-tetrahydroquinolin-6-yl)methyl)-6-(trifluoromethyl)-1,2-dihydropyridine-3-carboxamide], for which the IC50 is 960 nM.

With `O=C(NC(c1ccccc1)c1ccc2c(c1)CNCC2)c1ccc(C(F)(F)F)[nH]c1=O` (stereo not shown) [Compound 108, 2-oxo-N-(phenyl(1,2,3,4-tetrahydroisoquinolin-7-yl)methyl)-6-(trifluoromethyl)-1,2-dihydropyridine-3-carboxamide], the IC50 was greater than 10000 nM. Take `O=C(NC(c1ccccc1)c1ccc(CO)cc1)c1ccc(C(F)(F)F)[nH]c1=O` (stereo not shown) [Compound 109, N-((4-(hydroxymethyl)phenyl) (phenyl)methyl)-2-oxo-6-(trifluoromethyl)-1,2-dihydropyridine-3-carboxamide]: the concentration for half-maximal inhibition (IC50) came to 820 nM. With `O=C(NC(c1ccccc1)c1ccc2c(c1)NCCC2)c1ccc(C(F)(F)F)[nH]c1=O` (stereo not shown) [Compound 110, 2-oxo-N-(phenyl(1,2,3,4-tetrahydroquinolin-7-yl)methyl)-6-(trifluoromethyl)-1,2-dihydropyridine-3-carboxamide], the IC50 stood at 840 nM.

For the molecule `O=C(NC(c1ccccc1)c1ccc2c(c1)CCNC2)c1ccc(C(F)(F)F)[nH]c1=O` (stereo not shown) [Compound 112, 2-oxo-N-(phenyl(1,2,3,4-tetrahydroisoquinolin-6-yl)methyl)-6-(trifluoromethyl)-1,2-dihydropyridine-3-carboxamide], the IC50 is greater than 10000 nM. With `O=C(NC(c1ccccc1)c1ccc2c(c1)CNC2)c1ccc(C(F)(F)F)[nH]c1=O` (stereo not shown) [Compound 113, N-(isoindolin-5-yl(phenyl)methyl)-2-oxo-6-(trifluoromethyl)-1,2-dihydropyridine-3-carboxamide] the figure was greater than 10000 nM; with `O=C(NC(c1ccccc1)c1ccc(C2CCN(CC(F)(F)F)CC2)cc1)c1ccc(C(F)(F)F)[nH]c1=O` (stereo not shown) [Compound 114, 2-oxo-N-(phenyl(4-(1-(2,2,2-trifluoroethyl)piperidin-4-yl)phenyl)methyl)-6-(trifluoromethyl)-1,2-dihydropyridine-3-carboxamide], 280 nM; with `Cc1ccc(C(NC(=O)c2cc(C(F)(F)F)c[nH]c2=O)c2ccc(C)cc2)cc1` [Compound 116, N-(di-p-tolylmethyl)-2-oxo-5-(trifluoromethyl)-1,2-dihydropyridine-3-carboxamide], greater than 10000 nM. In the case of `Cc1ccc(C(NC(=O)c2cc(C)c(C(F)F)[nH]c2=O)c2ccc(C)cc2)cc1` [Compound 117, N-(di-p-tolylmethyl)-6-(difluoromethyl)-5-methyl-2-oxo-1,2-dihydropyridine-3-carboxamide], the IC50 was greater than 10000 nM.

As to `C=Cc1cc(C(=O)NC(c2ccc(C)cc2)c2ccc(C)cc2)c(=O)[nH]c1C(F)(F)F` [Compound 118, N-(di-p-tolylmethyl)-2-oxo-6-(trifluoromethyl)-5-vinyl-1,2-dihydropyridine-3-carboxamide], the IC50 amounted to 300 nM.

As for `CCc1cc(C(=O)NC(c2ccc(C)cc2)c2ccc(C)cc2)c(=O)[nH]c1C(F)(F)F` [Compound 119, N-(di-p-tolylmethyl)-5-ethyl-2-oxo-6-(trifluoromethyl)-1,2-dihydropyridine-3-carboxamide], the half-inhibitory concentration (IC50) amounted to 250 nM. Regarding `Cc1ccc(C(NC(=O)c2cc(CCO)c(C(F)(F)F)[nH]c2=O)c2ccc(C)cc2)cc1` [Compound 120, N-(di-p-tolylmethyl)-5-(2-hydroxyethyl)-2-oxo-6-(trifluoromethyl)-1,2-dihydropyridine-3-carboxamide], the IC50 was found to be 870 nM. Regarding `C=CCc1cc(C(=O)NC(c2ccc(C)cc2)c2ccc(C)cc2)c(=O)[nH]c1C(F)(F)F` [Compound 121, 5-allyl-N-(di-p-tolylmethyl)-2-oxo-6-(trifluoromethyl)-1,2-dihydropyridine-3-carboxamide], the IC50 came out at 220 nM. With `Cc1ccc(C(NC(=O)c2c(C(F)(F)F)cc[nH]c2=O)c2ccc(C)cc2)cc1` [Compound 122, N-(di-p-tolylmethyl)-2-oxo-4-(trifluoromethyl)-1,2-dihydropyridine-3-carboxamide] the figure was greater than 10000 nM; with `Cc1cc(C(F)(F)F)[nH]c(=O)c1C(=O)NC(c1ccccc1)c1ccccc1` [Compound 123, N-benzhydryl-4-methyl-2-oxo-6-(trifluoromethyl)-1,2-dihydropyridine-3-carboxamide], 5790 nM. Regarding `Cc1cc(C(F)(F)F)[nH]c(=O)c1C(=O)NC(c1ccccc1)c1ccc(Cl)cc1` (stereo not shown) [Compound 124, N-((4-chlorophenyl)(phenyl)methyl)-4-methyl-2-oxo-6-(trifluoromethyl)-1,2-dihydropyridine-3-carboxamide], the IC50 was found to be 1400 nM.

Consider `Cc1cc(C(F)(F)F)[nH]c(=O)c1C(=O)NC(c1ccccc1)c1ccc(CC(F)(F)F)cc1` (stereo not shown) [Compound 125, 4-methyl-2-oxo-N-(phenyl(4-(2,2,2-trifluoroethyl)phenyl)methyl)-6-(trifluoromethyl)-1,2-dihydropyridine-3-carboxamide], for which the IC50 worked out at 960 nM.

For the molecule `Cc1ccc(C(NC(=O)c2c(C)cc(C(F)(F)F)[nH]c2=O)c2ccccc2)cc1` (stereo not shown) [Compound 126, 4-methyl-2-oxo-N-(phenyl(p-tolyl)methyl)-6-(trifluoromethyl)-1,2-dihydropyridine-3-carboxamide], the IC50 was 1750 nM. Consider `O=C(NC1CCSc2ccccc21)c1ccc(C(F)(F)F)[nH]c1=O` (stereo not shown) [Compound 127, 2-oxo-N-(thiochroman-4-yl)-6-(trifluoromethyl)-1,2-dihydropyridine-3-carboxamide], for which the IC50 came to 3750 nM. The value for `O=C(NC1CCOc2ccccc21)c1ccc(C(F)(F)F)[nH]c1=O` (stereo not shown) [Compound 128, N-(chroman-4-yl)-2-oxo-6-(trifluoromethyl)-1,2-dihydropyridine-3-carboxamide] was 5690 nM; that for `CC1CC(NC(=O)c2ccc(C(F)(F)F)[nH]c2=O)c2ccccc2O1` (stereo not shown) [Compound 129, N-(2-methylchroman-4-yl)-2-oxo-6-(trifluoromethyl)-1,2-dihydropyridine-3-carboxamide] was 4330 nM.

As a reminder, the IC50 is the concentration needed to halve the response being measured.
